US12162867B2, “Inhibitors of RNA helicase DHX9 and uses thereof” (ACCENT THERAPEUTICS, INC., priority 2022, dated 2024)
Like-named read-outs stand apart in the source and are kept apart here.

Tests used:
Assay type in all cases: cell-based
LS411N cells = assay: DHX9 cellular proliferation assay (CellTiter-Glo), LS411N (CRC-MSI); conditions: Homo sapiens, LS-411N, read-out: LS411N (CRC-MSI-H) Antiproliferative IC50
NCI-H747 cells = assay: DHX9 cellular proliferation assay (CellTiter-Glo), NCI-H747 (CRC-MSS); conditions: Homo sapiens
[1] = tested on: circBRIP1 in HCT116 cells; assay: DHX9 circBRIP1 cellular target engagement SYBR Green assay (qPCR); conditions: Homo sapiens, HCT-116, circBRIP1, HCT116 cells, read-out: DHX9 Cellular Target Engagement EC50
[2] = NCI-H747, NCI-H747, performed at Pharmaron, read-out: H747 (CRC-MSS) Antiproliferative IC50
[3] = LS411N, CRC-MSI-H, performed at Pharmaron
[4] = NCI-H747, NCI-H747, CRC-MSS, performed at Pharmaron, read-out: H747 (CRC-MSS) Antiproliferative IC50

| IC50 (NCI-H747 cells; [2]) | EC50 ([1]; ^+ SyBr assay was used) | IC50 (NCI-H747 cells; [4]) | EC50 ([1]; SyBr assay (marked ^+)) | Compound | IC50 (LS411N cells; LS411N, performed at Pharmaron) | IC50 (LS411N cells; [3]) | IC50 (LS411N cells) | IC50 (NCI-H747 cells; NCI-H747, read-out: H747 (CRC-MSS) Antiproliferative IC50) |
| --- | --- | --- | --- | --- | --- | --- | --- | --- |
| > 10000 nM | 39.5 nM |  |  | COCc1ccc(-c2cc(C(=O)Nc3cc(Cl)cc(NS(C)(=O)=O)c3)cn2C)nc1 [Example 574] | 92.2 nM |  |  |  |
|  |  | 6890 nM | 135 nM | CCOc1cnc(-c2cc(C(=O)Nc3cc(Cl)cc(NS(C)(=O)=O)c3)cn2C)nc1 [Example 172] |  | 237 nM |  |  |
|  |  | 7340 nM | 483 nM | Cc1cc(C(=O)Nc2cc(Cl)cc(NS(C)(=O)=O)c2)cn1-c1ncccc1O [Example 281] |  | 367 nM |  |  |
|  |  | 3780 nM | 1910 nM | CS(=O)(=O)Nc1cc(Cl)cc(NC(=O)c2cc(-c3ncccc3Nc3ncccn3)cs2)c1 [Example 237] |  | 249 nM |  |  |
|  |  | > 10000 nM | 333 nM | Cc1cc(C(=O)Nc2cc(Cl)cc(NS(C)(=O)=O)c2)cn1-c1ccccc1 [Example 129, N-(3-chloro-5-(methylsulfonamido)phenyl)-5-methyl-1-phenyl-1H-pyrrole-3-carboxamide] |  | 1090 nM |  |  |
| > 10000 nM | 106 nM |  |  | COc1ccc(-c2cc(C(=O)Nc3cc(Cl)cc(NS(C)(=O)=O)c3)cn2C)nc1 [Example 573] | 103 nM |  |  |  |
|  |  | > 10000 nM | 290 nM | Cc1cccnc1-c1cc(C(=O)Nc2cc(Cl)cc(NS(C)(=O)=O)c2)cn1C [Example 81] |  | 1070 nM |  |  |
|  |  | > 10000 nM | 489 nM | Cc1cccnc1-n1cc(C(=O)Nc2cc(Cl)cc(NS(C)(=O)=O)c2)cc1C [Example 130] |  | 1160 nM |  |  |
|  |  | > 10000 nM | 143 nM | CS(=O)(=O)Nc1cc(Br)cc(NC(=O)c2cnn(-c3ccc(N4CCOCC4)cn3)c2)c1 [Example 55] |  | 1060 nM |  |  |
|  |  | > 10000 nM | 51.1 nM | CCOc1cnc(-c2cc(C(=O)Nc3cc(Cl)cc(NS(C)(=O)=O)c3)sc2C)nc1 [Example 335] |  | 52.6 nM |  |  |
|  |  | > 10000 nM | 63 nM | COc1ccc(-n2cc(C(=O)Nc3cc(Cl)cc(NS(C)(=O)=O)c3)cc2C)nc1 [Example 391] |  | 171 nM |  |  |
| 4360 nM | 96 nM |  |  | Cc1cc(C(=O)Nc2cc(Cl)cc(NS(C)(=O)=O)c2)cn1-c1ccc(C(F)(F)F)cn1 [Example 443] | 353 nM |  |  |  |
|  |  | 8540 nM | 516 nM | Cc1cccnc1-c1cc(C(=O)Nc2cc(Cl)cc(NS(C)(=O)=O)c2)cn1CC(F)F [Example 143, N-(3-chloro-5-(methylsulfonamido)phenyl)-1-(2,2-difluoroethyl)-5-(3-methylpyridin-2-yl)-1H-pyrrole-3-carboxamide] |  | 1090 nM |  |  |
|  |  | > 10000 nM | 260 nM | CS(=O)(=O)Nc1cc(Br)cc(NC(=O)c2cc(-c3ccccc3O)cs2)c1 [Example 21] |  | 791 nM |  |  |
|  |  | > 10000 nM | 106 nM | COc1cnc(-c2csc(C(=O)Nc3cc(Cl)cc(NS(C)(=O)=O)c3)c2)nc1 [Example 340] |  | 118 nM |  |  |
|  |  | > 10000 nM | 48.3 nM | CS(=O)(=O)Nc1cc(Cl)cc(NC(=O)c2cc(-c3ncccc3COc3cc(F)cc(F)c3)cs2)c1 [Example 228] |  | 117 nM |  |  |
|  |  | 8670 nM | 13 nM | Cc1sc(C(=O)Nc2cc(Cl)cc(NS(C)(=O)=O)c2)cc1-c1ncccc1OCc1ccccc1 [Example 34] |  | 14.1 nM |  |  |
|  |  | > 10000 nM | 73.2 nM | Cn1cc(C(=O)Nc2cc(Cl)cc(NS(C)(=O)=O)c2)cc1-c1ncccn1 [Example 82] |  | 134 nM |  |  |
| > 10000 nM | 74.1 nM |  |  | Cc1cc(C(=O)Nc2cc(Cl)cc(NS(C)(=O)=O)c2)cn1-c1ccc(N2CC3CC3C2)cn1 (stereo not drawn) [Example 411] | 142 nM |  |  |  |

| Compound | IC50 (NCI-H747 cells; [2]) | EC50 ([1]; ^+ SyBr assay was used) | IC50 (NCI-H747 cells; [4]) | EC50 ([1]; SyBr assay (marked ^+)) | IC50 (LS411N cells; LS411N, performed at Pharmaron) | IC50 (LS411N cells; [3]) | IC50 (LS411N cells) | IC50 (NCI-H747 cells; NCI-H747, read-out: H747 (CRC-MSS) Antiproliferative IC50) |
| --- | --- | --- | --- | --- | --- | --- | --- | --- |
| CS(=O)(=O)Nc1cc(Br)cc(NC(=O)c2cnn(-c3ccccn3)c2)c1 [Example 36, N-(3-bromo-5-(methylsulfonamido)phenyl)-1-(pyridin-2-yl)-1H-pyrazole-4-carboxamide] |  |  |  | 313 nM |  |  | 1080 nM | > 10000 nM |
